1 molecule from patent US20200261391A1, “METHODS OF REDUCING THE RISK OF A CARDIOVASCULAR EVENT IN A STATIN-TREATED SUBJECT BY INCREASING SERUM AND PLASMA EPA AND DPA LEVELS” (Amarin Pharmaceuticals Ireland Limited, priority 2019, published 2020) can be followed below.

Experiment [1] has as its system patients with elevated triglyceride levels on statin therapy. Description: REDUCE-IT endpoints by EPA blood level tertile in the icosapent ethyl group compared to placebo. Type of experiment: in vivo, human. The procedure: To assess the relationship between on-treatment hsCRP and the primary and key secondary endpoints, subgroup analyses were carried out as done for the ITT population for patients grouped according to values greater or equal to or less than […] at baseline and at 2 years. To assess the relationship between on-treatment serum EPA and the primary and key secondary endpoints, Kaplan-Meier (KM) curves were produced for AMR101 treated patients grouped into tertiles based on their values at year 1 and were compared with the placebo-treated patients.
This is a study aimed towards determining a relative risk reduction (RRR) between subjects stratified by EPA tertiles in the REDUCE-IT clinical trial described above in Example 1. Samples were obtained from those subjects and total EPA and AA levels in human serum and plasma samples were determined according at least to the methods described in Example 7.
(§1) The objective of this study is to assess the effects of administering icosapent ethyl at 4 g per day to patients from the REDUCE-IT trial of Example 1. More specifically, patients from the REDUCE-IT trial of Example 1 were stratified by their EPA levels into one of three tertiles. Following stratification, the objective was to determine if the RRR differs between patients having EPA levels in the three different tertiles. For the data collected as shown in Tables 38-43 and FIGS. 52, 53, and 56-59, the tertiles were established based on data collected from subjects at 1 year, 2 years, and last visit following icosapent ethyl administration compared to placebo. Data are presented as an average of 1 year, 2 year, […], and end of study values. The data was further analyzed use both pooled and unpooled statistically methods.

The test system is the same in experiment [2]. The experiment is described as follows: REDUCE-IT endpoints by pooled (icosapent ethyl and placebo) EPA/AA ratio tertile. The format is in vivo, human. The settings on record: icosapent ethyl and placebo pooled.
Description: as §1
Placebo and icosapent ethyl treated subjects were pooled and stratified based on EPA/AA tertiles with […], […], and the highest […]

Setting [3] is: EPA >189 μg/mL, on-treatment average of year 1, year 2, last visit.
Setting [4] is: EPA >114.7 to ≤189 μg/mL, on-treatment average of year 1, year 2, last visit.
Setting [5] is: EPA ≤114.7 μg/mL, on-treatment average of year 1, year 2, last visit.
Where [6] appears, read: highest >0.395187 vs lowest ≤0.084337.
Setting [7] is: highest >0.395187 vs middle >0.084337 to ≤0.395187.
Setting [8] is: middle >0.084337 to ≤0.395187 vs lowest ≤0.084337.

Each structure is given as a SMILES string.

Turning to `CC/C=C\C/C=C\C/C=C\C/C=C\C/C=C\CCCC(=O)OCC` [icosapent ethyl, eicosapentaenoic acid ethyl ester], in experiment [1] (EPA >189 μg/mL), the “key secondary endpoint HR, highest EPA tertile vs. placebo” value is on record as 0.65 and the “primary endpoint HR, highest EPA tertile vs. placebo” value amounted to 0.65. Besides, in experiment [1] (setting [3]), the “HR (95% CI), Key Secondary Endpoint, Highest EPA tertile vs Placebo” value is 0.65 (0.54, 0.80) and the “HR (95% CI), Primary Endpoint, Highest EPA tertile vs Placebo” value was 0.65 (0.55, 0.76). For the same molecule, in experiment [1] (EPA >114.7 to ≤189 μg/mL), the “key secondary endpoint HR, middle EPA tertile vs. placebo” value was determined as 0.65 and the “primary endpoint HR, middle EPA tertile vs. placebo” value was determined as 0.72. Moreover, in experiment [1] (setting [4]), the “HR (95% CI), Key Secondary Endpoint, Middle EPA tertile vs Placebo” value is listed as 0.65 (0.53, 0.79) and the “HR (95% CI), Primary Endpoint, Middle EPA tertile vs Placebo” value is listed as 0.72 (0.62, 0.85). In experiment [1] (EPA blood level ≤114.7 μg/mL), the “key secondary endpoint HR, lowest EPA tertile vs. placebo” value amounted to 0.89 and the “primary endpoint HR, lowest EPA tertile vs. placebo” value is recorded as 0.84. Moreover, in experiment [1] (setting [5]), the “HR (95% CI), Key Secondary Endpoint, Lowest EPA tertile vs Placebo” value was 0.89 (0.74, 1.07) and the “HR (95% CI), Primary Endpoint, Lowest EPA tertile vs Placebo” value is recorded as 0.84 (0.72, 0.98). The “primary composite endpoint HR, highest EPA tertile vs. placebo” value in experiment [1] (FIG. 53, ITT, EPA >190.55 μg/mL) was determined as 0.63. For the same molecule, the “primary composite endpoint HR, middle EPA tertile vs. placebo” value in experiment [1] (FIG. 53, ITT, EPA >116.9 to ≤190.55 μg/mL) worked out at 0.74. The “primary composite endpoint HR, lowest EPA tertile vs. placebo” value in experiment [1] (FIG. 53, ITT, EPA ≤116.9 μg/mL) is listed as 0.85. Further, in experiment [2] (setting [6]), the “HR (95% CI), Key Secondary Endpoint, pooled EPA/AA ratio tertiles, Highest vs Lowest” value is given as 0.57 (0.48,0.68) and the “HR (95% CI), Primary Endpoint, pooled EPA/AA ratio tertiles, Highest vs Lowest” value was 0.64 (0.56, 0.73). Moreover, in experiment [2] (setting [7]), the “HR (95% CI), Key Secondary Endpoint, pooled EPA/AA ratio tertiles, Highest vs Middle” value is reported as 0.75 (0.63, 0.89) and the “HR (95% CI), Primary Endpoint, pooled EPA/AA ratio tertiles, Highest vs Middle” value is 0.84 (0.73, 0.96). Further, in experiment [2] (setting [8]), the “HR (95% CI), Key Secondary Endpoint, pooled EPA/AA ratio tertiles, Middle vs Lowest” value is recorded as 0.76 (0.65, 0.89) and the “HR (95% CI), Primary Endpoint, pooled EPA/AA ratio tertiles, Middle vs Lowest” value is recorded as 0.77 (0.67, 0.87).
